Among the data in ChEMBL document CHEMBL5653615 (J Biol Chem, 2013) are inhibition values, retold here.

In test [1] the target is Serine/threonine-protein kinase PAK 1 (Homo sapiens) (UniProt Q13153). The test is described as follows: Inhibition of human PAK1 at 1.82 nM by HotSpot assay relative to control.
The target in test [2] is Ribosomal protein S6 kinase alpha-4 (Homo sapiens) (UniProt O75676). Kind of test: Inhibition of human RPS6KA4 at 1.82 nM by HotSpot assay relative to control.
For test [3], the target named is Epidermal growth factor receptor (Homo sapiens) (UniProt P00533). The test is described as follows: Inhibition of human EGFR at 1.82 nM by HotSpot assay relative to control.
In test [4] the target is Myosin light chain kinase 2, skeletal/cardiac muscle (Homo sapiens) (UniProt Q9H1R3). Kind of test: Inhibition of human MYLK2 at 1.82 nM by HotSpot assay relative to control.
Chain of Myosin light chain kinase 2, skeletal/cardiac muscle (Homo sapiens) (Q9H1R3 whole entry): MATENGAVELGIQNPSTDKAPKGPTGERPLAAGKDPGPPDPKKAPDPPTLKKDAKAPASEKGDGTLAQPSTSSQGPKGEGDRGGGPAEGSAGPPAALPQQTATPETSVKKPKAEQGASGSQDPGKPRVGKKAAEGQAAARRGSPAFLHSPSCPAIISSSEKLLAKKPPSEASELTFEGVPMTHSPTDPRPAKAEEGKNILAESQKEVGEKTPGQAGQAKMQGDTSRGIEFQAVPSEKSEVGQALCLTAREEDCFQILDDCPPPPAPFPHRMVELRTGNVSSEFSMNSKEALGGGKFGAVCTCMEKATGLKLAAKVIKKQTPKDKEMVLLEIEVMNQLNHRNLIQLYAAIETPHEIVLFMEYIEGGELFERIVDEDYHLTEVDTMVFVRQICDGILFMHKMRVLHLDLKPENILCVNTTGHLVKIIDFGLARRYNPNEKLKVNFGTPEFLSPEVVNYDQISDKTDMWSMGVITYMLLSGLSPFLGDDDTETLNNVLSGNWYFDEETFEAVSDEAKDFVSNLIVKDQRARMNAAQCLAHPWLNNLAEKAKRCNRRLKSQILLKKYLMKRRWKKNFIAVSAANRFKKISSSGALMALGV
The target of test [5] is MAP kinase-interacting serine/threonine-protein kinase 2 (Homo sapiens) (UniProt Q9HBH9). Kind of test: Inhibition of human MNK2 at 1.82 nM by HotSpot assay relative to control.
Chain of MAP kinase-interacting serine/threonine-protein kinase 2 (Homo sapiens) (Q9HBH9 whole entry, looked up): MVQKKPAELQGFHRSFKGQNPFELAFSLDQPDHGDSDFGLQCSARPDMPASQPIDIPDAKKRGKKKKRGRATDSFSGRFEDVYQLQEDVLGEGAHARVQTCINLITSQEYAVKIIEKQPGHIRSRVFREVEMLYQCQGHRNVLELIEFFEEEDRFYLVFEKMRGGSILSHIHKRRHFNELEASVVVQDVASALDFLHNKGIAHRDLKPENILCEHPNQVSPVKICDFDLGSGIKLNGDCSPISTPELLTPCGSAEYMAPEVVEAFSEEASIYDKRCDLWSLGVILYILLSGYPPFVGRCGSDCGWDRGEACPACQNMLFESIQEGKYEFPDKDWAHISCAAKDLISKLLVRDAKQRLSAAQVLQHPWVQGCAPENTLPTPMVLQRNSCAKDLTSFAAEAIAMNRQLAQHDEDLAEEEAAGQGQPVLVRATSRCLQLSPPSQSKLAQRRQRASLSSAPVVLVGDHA
For test [6], the target named is T1, Tyrosine-protein kinase ZAP-70 (Homo sapiens) (UniProt P43403).
T1 sequence (whole entry): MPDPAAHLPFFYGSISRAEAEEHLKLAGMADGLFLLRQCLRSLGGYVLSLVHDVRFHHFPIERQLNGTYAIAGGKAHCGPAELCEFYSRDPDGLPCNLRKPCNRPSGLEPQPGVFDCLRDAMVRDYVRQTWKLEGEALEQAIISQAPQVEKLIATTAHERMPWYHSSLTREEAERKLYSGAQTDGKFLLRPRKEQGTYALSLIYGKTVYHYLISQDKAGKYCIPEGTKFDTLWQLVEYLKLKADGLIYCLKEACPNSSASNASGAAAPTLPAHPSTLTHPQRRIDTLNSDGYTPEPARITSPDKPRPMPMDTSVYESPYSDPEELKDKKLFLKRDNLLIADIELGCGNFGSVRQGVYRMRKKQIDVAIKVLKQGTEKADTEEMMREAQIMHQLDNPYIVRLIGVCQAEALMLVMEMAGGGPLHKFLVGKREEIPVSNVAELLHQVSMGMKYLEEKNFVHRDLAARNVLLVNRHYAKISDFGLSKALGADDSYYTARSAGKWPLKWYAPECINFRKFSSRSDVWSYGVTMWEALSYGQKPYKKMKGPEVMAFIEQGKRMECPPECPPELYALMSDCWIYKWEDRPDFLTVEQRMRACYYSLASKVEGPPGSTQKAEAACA
Kind of test: Inhibition of human ZAP70 at 1.82 nM by HotSpot assay relative to control.

Test [7] deals with Activin receptor type-1-like (Homo sapiens) (UniProt P37023). Kind of test: Inhibition of human ALK1 at 1.82 nM by HotSpot assay relative to control.
Test [8] deals with T2, Inhibitor of nuclear factor kappa-B kinase subunit epsilon (Homo sapiens) (UniProt Q14164).
T2 sequence (whole entry): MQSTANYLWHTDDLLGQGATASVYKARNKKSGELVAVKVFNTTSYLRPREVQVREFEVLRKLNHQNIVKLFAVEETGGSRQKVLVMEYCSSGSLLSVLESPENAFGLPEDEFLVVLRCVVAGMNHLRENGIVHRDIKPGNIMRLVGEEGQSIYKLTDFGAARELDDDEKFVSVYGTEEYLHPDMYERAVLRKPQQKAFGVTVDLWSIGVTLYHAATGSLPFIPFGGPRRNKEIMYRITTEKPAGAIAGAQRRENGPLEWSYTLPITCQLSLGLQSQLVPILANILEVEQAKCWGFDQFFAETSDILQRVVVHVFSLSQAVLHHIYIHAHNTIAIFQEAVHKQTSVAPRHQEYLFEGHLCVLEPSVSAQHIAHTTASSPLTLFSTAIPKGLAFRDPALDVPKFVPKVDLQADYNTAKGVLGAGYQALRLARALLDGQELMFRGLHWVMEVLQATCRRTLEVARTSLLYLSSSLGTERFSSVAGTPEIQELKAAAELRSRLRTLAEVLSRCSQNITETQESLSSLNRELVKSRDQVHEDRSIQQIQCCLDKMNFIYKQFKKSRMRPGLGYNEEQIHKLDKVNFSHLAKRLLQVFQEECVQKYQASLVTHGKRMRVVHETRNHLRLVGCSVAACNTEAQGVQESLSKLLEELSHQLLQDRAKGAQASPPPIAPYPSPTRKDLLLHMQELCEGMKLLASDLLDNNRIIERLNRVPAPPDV
As to conditions: dose 1.82 nM.
Description: Inhibition of human IKKe at 1.82 nM by HotSpot assay relative to control

Test [9] deals with Mitogen-activated protein kinase kinase kinase 8 (Homo sapiens) (UniProt P41279). The test is described as follows: Inhibition of human COT1 at 1.82 nM by HotSpot assay relative to control.
Chain of Mitogen-activated protein kinase kinase kinase 8 (Homo sapiens) (P41279 whole entry): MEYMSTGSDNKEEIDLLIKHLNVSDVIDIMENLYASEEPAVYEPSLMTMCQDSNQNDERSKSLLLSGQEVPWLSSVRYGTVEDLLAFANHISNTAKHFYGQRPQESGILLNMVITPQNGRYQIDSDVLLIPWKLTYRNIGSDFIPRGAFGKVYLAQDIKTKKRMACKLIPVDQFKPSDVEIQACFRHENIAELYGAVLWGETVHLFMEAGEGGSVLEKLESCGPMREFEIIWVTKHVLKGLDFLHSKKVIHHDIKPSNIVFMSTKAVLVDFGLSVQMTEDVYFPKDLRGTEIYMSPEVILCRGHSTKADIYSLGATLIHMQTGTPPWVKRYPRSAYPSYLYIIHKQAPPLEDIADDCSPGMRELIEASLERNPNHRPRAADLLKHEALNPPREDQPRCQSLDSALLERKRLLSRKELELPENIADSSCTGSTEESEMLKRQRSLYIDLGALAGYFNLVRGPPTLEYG
Test [10] has as its target Angiopoietin-1 receptor (Homo sapiens) (UniProt Q02763). The test is described as follows: Inhibition of human TEK at 18.6 nM by HotSpot assay relative to control.
Test [11] addresses T3, Dual specificity tyrosine-phosphorylation-regulated kinase 2 (Homo sapiens) (UniProt Q92630).
T3 sequence (whole entry): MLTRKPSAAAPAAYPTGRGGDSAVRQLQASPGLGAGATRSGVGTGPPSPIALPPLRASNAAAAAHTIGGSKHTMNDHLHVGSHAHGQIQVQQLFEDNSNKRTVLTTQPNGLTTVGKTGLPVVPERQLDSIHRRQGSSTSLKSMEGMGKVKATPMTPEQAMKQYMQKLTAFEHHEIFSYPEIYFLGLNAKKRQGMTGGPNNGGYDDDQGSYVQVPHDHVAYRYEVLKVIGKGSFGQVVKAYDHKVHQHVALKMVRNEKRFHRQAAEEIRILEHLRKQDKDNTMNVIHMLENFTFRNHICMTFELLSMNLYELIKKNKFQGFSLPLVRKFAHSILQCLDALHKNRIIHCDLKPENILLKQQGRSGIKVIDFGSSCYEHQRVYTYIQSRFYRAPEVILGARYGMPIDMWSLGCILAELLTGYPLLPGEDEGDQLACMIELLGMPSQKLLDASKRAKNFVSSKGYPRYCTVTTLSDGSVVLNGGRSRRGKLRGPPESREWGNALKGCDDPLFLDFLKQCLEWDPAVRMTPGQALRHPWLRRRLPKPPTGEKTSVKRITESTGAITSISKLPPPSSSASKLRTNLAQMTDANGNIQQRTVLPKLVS
Kind of test: Inhibition of human DYRK2 at 18.6 nM by HotSpot assay relative to control.

Test [12] addresses Macrophage-stimulating protein receptor (Homo sapiens) (UniProt Q04912). Kind of test: Inhibition of human MST1R at 18.6 nM by HotSpot assay relative to control.
The target of test [13] is Cyclin-dependent kinase 4/cyclin D1 (Homo sapiens) (UniProt P11802+P24385). Kind of test: Inhibition of human CDK4/cyclin D1 at 18.6 nM by HotSpot assay relative to control. It counts as protein-complex assay.
In test [14] the target is Death-associated protein kinase 3 (Homo sapiens) (UniProt O43293). The test is described as follows: Inhibition of human DAPK3 at 18.6 nM by HotSpot assay relative to control.
Chain of Death-associated protein kinase 3 (Homo sapiens) (O43293 whole entry, looked up): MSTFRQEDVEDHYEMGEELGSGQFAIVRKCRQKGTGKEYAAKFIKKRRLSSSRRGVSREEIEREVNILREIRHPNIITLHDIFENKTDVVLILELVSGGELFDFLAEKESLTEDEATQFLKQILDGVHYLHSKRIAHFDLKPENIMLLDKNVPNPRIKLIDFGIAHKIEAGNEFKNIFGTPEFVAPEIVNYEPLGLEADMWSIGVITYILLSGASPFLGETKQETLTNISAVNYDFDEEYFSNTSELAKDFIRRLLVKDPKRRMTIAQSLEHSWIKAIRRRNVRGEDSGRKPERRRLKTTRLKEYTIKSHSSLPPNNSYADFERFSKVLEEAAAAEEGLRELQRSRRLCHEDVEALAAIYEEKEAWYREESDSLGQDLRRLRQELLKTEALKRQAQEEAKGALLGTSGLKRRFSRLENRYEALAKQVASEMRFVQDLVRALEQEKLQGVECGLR
In test [15] the target is Serine/threonine-protein kinase PAK 3 (Homo sapiens) (UniProt O75914). Kind of test: Inhibition of human PAK3 at 18.6 nM by HotSpot assay relative to control.
Chain of Serine/threonine-protein kinase PAK 3 (Homo sapiens) (O75914 whole entry, looked up): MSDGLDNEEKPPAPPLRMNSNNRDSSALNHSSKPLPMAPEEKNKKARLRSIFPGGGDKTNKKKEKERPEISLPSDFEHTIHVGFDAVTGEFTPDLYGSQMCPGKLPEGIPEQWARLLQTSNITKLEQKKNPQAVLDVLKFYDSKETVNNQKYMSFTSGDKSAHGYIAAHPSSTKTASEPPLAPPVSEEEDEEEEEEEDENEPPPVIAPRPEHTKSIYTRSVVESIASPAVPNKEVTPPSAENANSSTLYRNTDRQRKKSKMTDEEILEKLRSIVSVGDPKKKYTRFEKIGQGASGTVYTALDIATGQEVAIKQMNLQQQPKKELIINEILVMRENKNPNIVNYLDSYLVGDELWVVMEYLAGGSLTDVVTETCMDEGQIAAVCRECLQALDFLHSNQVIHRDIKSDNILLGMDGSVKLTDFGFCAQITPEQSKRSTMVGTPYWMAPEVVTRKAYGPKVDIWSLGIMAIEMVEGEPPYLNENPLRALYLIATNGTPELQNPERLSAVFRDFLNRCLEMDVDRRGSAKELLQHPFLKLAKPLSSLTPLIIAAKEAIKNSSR

Chain of Angiopoietin-1 receptor (Homo sapiens) (Q02763 whole entry): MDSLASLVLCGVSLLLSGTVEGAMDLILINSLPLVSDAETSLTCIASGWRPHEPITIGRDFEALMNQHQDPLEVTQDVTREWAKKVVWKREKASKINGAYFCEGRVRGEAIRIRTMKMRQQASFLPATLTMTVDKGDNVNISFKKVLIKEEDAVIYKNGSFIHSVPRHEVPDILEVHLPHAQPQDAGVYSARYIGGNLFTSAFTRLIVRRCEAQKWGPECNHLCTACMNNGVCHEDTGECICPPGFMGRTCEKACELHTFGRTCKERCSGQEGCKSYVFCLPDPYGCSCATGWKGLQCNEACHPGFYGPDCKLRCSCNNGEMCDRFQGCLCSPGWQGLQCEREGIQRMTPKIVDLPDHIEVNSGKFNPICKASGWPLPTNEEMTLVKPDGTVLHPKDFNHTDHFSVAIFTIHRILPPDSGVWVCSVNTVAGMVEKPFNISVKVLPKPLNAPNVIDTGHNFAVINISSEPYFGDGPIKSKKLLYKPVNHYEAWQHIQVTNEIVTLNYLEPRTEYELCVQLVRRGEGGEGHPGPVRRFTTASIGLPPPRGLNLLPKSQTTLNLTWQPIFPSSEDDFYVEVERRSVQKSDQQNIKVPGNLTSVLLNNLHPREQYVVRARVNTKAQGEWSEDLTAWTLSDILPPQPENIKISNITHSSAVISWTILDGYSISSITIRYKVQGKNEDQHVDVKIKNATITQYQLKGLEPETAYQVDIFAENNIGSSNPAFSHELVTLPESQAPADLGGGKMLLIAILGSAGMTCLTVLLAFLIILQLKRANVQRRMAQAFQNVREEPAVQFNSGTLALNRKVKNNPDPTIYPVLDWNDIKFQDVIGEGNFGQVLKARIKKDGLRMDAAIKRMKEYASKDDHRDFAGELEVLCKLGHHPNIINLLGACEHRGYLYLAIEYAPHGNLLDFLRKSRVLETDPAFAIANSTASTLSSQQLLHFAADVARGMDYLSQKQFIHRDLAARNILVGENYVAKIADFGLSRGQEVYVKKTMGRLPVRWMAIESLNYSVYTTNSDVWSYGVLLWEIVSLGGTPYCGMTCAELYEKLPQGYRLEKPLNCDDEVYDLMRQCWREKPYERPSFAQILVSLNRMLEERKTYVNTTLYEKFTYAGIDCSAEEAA
Chain of Macrophage-stimulating protein receptor (Homo sapiens) (Q04912 25-304 limits assumed): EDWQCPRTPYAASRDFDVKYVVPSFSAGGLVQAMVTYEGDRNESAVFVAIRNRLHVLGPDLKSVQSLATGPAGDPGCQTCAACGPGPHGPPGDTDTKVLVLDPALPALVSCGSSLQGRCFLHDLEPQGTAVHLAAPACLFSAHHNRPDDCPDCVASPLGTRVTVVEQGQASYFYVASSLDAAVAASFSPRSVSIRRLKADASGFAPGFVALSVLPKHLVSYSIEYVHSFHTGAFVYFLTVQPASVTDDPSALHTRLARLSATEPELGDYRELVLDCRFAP
Chain of Macrophage-stimulating protein receptor (Homo sapiens) (Q04912 310-1400 limits assumed): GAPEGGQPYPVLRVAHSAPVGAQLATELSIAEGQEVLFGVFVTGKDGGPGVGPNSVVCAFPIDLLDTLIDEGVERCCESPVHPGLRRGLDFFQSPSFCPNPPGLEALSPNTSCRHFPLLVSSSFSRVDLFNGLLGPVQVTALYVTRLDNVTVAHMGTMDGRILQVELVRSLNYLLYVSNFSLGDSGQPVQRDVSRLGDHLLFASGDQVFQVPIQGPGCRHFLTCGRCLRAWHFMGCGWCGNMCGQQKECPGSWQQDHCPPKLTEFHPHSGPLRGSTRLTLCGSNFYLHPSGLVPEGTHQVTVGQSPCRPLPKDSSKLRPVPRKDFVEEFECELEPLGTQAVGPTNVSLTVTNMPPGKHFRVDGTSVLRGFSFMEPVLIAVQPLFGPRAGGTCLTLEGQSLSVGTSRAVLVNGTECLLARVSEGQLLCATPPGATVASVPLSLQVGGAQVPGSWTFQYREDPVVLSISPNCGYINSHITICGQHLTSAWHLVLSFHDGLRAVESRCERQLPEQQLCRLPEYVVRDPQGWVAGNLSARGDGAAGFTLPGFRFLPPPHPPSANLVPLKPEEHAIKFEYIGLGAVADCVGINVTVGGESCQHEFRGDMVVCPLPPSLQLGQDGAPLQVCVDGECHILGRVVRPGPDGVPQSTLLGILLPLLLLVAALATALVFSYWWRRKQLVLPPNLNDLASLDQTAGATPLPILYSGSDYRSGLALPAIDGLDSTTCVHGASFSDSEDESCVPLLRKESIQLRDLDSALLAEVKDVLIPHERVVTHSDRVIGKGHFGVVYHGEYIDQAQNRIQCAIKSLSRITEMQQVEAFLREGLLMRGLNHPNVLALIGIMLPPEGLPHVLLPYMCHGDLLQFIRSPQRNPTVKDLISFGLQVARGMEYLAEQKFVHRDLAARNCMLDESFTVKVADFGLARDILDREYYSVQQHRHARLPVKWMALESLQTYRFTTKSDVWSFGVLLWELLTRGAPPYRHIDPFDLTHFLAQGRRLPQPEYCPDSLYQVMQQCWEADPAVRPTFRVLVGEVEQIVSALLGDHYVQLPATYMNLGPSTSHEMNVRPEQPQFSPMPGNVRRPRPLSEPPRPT

On to `C[C@@]1(C(=O)Nc2ccc(F)nc2)CCCN1c1nc(Nc2cc(C3CC3)n[nH]2)c2cccn2n1`, for which the inhibition (commonly the relative decrease from the control value, in per cent) in test [1] was 1.83%; in test [2], -3.34%; in test [3], -6.78%; in test [4] it was -4.22%; in [5], -4.8%; in test [6], -2.24%. Besides, the inhibition is 0.3% in [7], 5.87% in test [8] and 10.7% in test [9].

For the compound `C[C@]1(O)C[C@@H](c2nc(-c3ccc4ccc(-c5ccccc5)nc4c3)c3c(N)nccn32)C1`, the inhibition in test [10] is 2.86%; in [11], -1.48%; in [12], 0.1%; in test [13], -1.49%; in test [14], 6.02%; in test [15], 2.16%.
